Assay results as given in article PMC6877352, “Modifying the Siderophore Triacetylfusarinine C for Molecular Imaging of Fungal Infection” (Molecular imaging and biology, 2019).
“And” between values parts separate entries of the source, which are not always exact repeats. Identical values can stand only once. “Also recorded” adds a separate entry of the source.

Key:
[1] = Protein binding in human serum (size exclusion spin columns); details: 37 °C, n = 3
Description: At selected time points, 25 μl of serum aliquots was applied on size exclusion spin columns MicroSpin™ G-50 (GE Healthcare, Vienna, Austria). Columns were centrifuged at 2000 rcf for 2 min to separate protein bound radiotracer (eluate) from non-protein bound radiotracer (column). Protein binding ability was determined by measuring activities of column and eluate in the gamma counter.

[2] = Stability in PBS pH 7.4 (RP-HPLC, %RCP); details: PBS pH 7.4, 37 °C, n = 3
Description: (§1) [^68Ga]siderophore (50 μl, 2 nmol) was incubated in 450 μl PBS or human serum at 37 °C. At each time point, aliquot of PBS was injected directly to RP-HPLC whereas serum aliquot was mixed with MeOH, vortexed, and centrifuged at 20,000 rcf for 2 min. Supernatant was diluted with H2O and subsequently analyzed by RP-HPLC. The stability was presented as %RCP of radiotracer (n = 3).

[3] = Stability in fresh human serum (RP-HPLC, %RCP); details: 37 °C, n = 3
Description: as §1

[4] = tested on: A. fumigatus wildtype (ATCC46645); assay: In vitro uptake assay in A. fumigatus; format: cell-based, Aspergillus fumigatus; details: iron-starvation condition, 45 min, normalized to [^68Ga]TAFC uptake from the same experiment, n = 3
Description: For in vitro uptake studies, A. fumigatus wildtype (ATCC46645) was used. Fungal strain was cultured at 37 °C in Aspergillus minimal medium (AMM) containing 1 % (m/v) glucose as carbon source, 20 mM glutamine as nitrogen source, salts, and trace elements. Iron-sufficient media were prepared by adding FeSO4 to a final concentration of 30 μM. For iron-deficient conditions, supplementation of iron was omitted. Iron starvation was verified by the detection of extracellular siderophore production which is suppressed by iron supplementation.
Uptake assays were performed in either iron-deficient or iron-sufficient A. fumigatus wildtype cultures. In a 96-well MultiScreen Filter Plates HTS (1 μm glass fiber filter, Merck Millipore, Darmstadt, Germany), 180 μl of A. fumigatus suspended in iron-replete or iron-depleted medium was added. [^68Ga]siderophores (approx. 1 × 10^5 cpm, 80 nM) were incubated with either PBS pH 7.4 (total series) or blocking solution (10 μM [Fe]TAFC) (non-specific series) at RT for 45 min in quadriplicates. The incubation was interrupted by suction of the medium and the plate was washed twice with ice-cold TRIS-buffered saline (10 mM, pH 7.3). The filters were isolated and the remaining activities were measured in the gamma counter. The uptake was calculated as % uptake of total activity added; each assay was repeated three times. To normalize uptake variations between different fungal cultures, the uptake of each [^68Ga]siderophore was expressed as the ratio to [^68Ga]TAFC uptake from the same experiment. The mean values of three different assays were used to quantitatively compare the difference in uptake between the compounds.

[5] = Biodistribution in healthy BALB/c mice; details: 90 min p.i.
Description: At 90 min post injetion (p.i.), mice were sacrified by cervical dislocation. Organs and tissues (blood, spleen, pancrease, stomach, intestine, kidneys, liver, heart, lung, muscle, femur) were collected and weighed. Radioactivities accumulated by tissues were measured in the gamma counter. The obtained values were expressed as the percentage of injected dose per gram tissue (%ID/g). Urine sample from each animal was injected to RP-HPLC for analysis of urinary metabolic profile of [^68Ga]siderophore.

[6] = Small animal PET/CT imaging in non-infected Lewis rats; details: for excretion in PET/CT images: healthy Lewis rats, 45 min p.i.; for Lung uptake (non-infected): non-infected Lewis rats, r.o. injection ~6 MBq, PET/CT 45 min p.i.
Description: (§2) PET and CT images were acquired with an Albira PET/SPECT/CT small animal imaging system (Bruker Biospin Corporation, Woodbridge, CT, USA). A. fumigatus infection in rats was established as described by Petrik, et al.. A group of 3 female Lewis rats (2–3 months old), healthy or lung infected, were injected retro-orbitally (r.o.) with [^68Ga] […] Animals were anesthetized with isoflurane (FORANE, Abbott Laboratories, Abbott Park, IL, USA) (2 % flow rate) and positioned prone head first in the Albira system. PET/CT imaging was started 45 min p.i. with a 10-min PET (FOV 148 mm axial) and a subsequent triple CT scanning (FOV 3 × 65 mm axial, 45 kVp, 400 μA, at 400 projections). For reconstruction, Albira software (Bruker Biosoin Corporation, Woodbridge, CZ, USA) was used involving filtered backprojection and MLEM algorithms. PMOD software (PMOD Technologies Ltd., Zurich, Switzerland) was used to analyze and view the reconstructed images.

[7] = tested on: A. fumigatus infection; assay: Small animal PET/CT imaging in rat IPA model; details: IPA Lewis rats (A. fumigatus lung infection), r.o. injection ~6 MBq, PET/CT 45 min p.i.
Description: as §2

[8] = tested on: A. terreus wildtype strain; assay: In vitro uptake assay in A. terreus (lacks the MirB transporter); format: cell-based, Aspergillus terreus
Description: To confirm the specificity of uptake of TAFC derivatives by A. fumigatus via the MirB transporter, A. terreus, which lacks the MirB transporter, was used for in vitro uptake assay. A. terreus was grown in either iron-deficient or iron-sufficient cultures. Uptake studies were performed as described for A. fumigatus and expressed as % uptake of total activity added.

[9] = healthy BALB/c mice, i.v., n = 3

Row | Compound | Protein binding (%) ([1]; incubation time 30 min) | Protein binding (%) ([1]; incubation time 60 min) | Protein binding (%) ([1]; incubation time 120 min) | Stability in PBS (%) ([2]; 30 min) | Stability in PBS (%) ([2]; 60 min) | Stability in PBS (%) ([2]; 120 min) | Stability in serum (%) ([3]; 30 min) | Stability in serum (%) ([3]; 60 min) | Stability in serum (%) ([3]; 120 min) | uptake ratio to [^68Ga]TAFC [4] | species detected in urine (RP-HPLC urinary metabolic profile) ([5]; BALB/c mice) | excretion ([5]; healthy BALB/c mice, i.v.) | blood levels [5, 9] [%ID/g] | Lung uptake (non-infected) [6] [%ID/g] | Lung uptake (infected) [7] [%ID/g] | excretion in PET/CT images [6] | other results
1 | CCCC(=O)NC1CCCN(O)C(=O)C=C(C)CCOC(=O)C(NC(C)=O)CCCN(O)C(=O)C=C(C)CCOC(=O)C(NC(C)=O)CCCN(O)C(=O)C=C(C)CCOC1=O (stereo not drawn) (68Ga complex, metal not drawn) [DABuFC, diacetylbutanoyl(FSC)] | 2.63 ± 1.03 | 2.92 ± 1.11 | 3.61 ± 1.19 | 99.87 ± 0.07 | 99.85 ± 0.08 | 99.79 ± 0.14 | 99.58 ± 0.04 | 99.59 ± 0.20 | 99.60 ± 0.14 | 0.87 | only intact | rapid renal excretion | < 0.1 | 0.23 ± 0.03 | 0.79 ± 0.15 | – | uptake ratio to [^68Ga]TAFC ([4]; listed as [^68Ga]DABuFC): around 1; retention in the blood, spleen, and pancreas in comparison with [^68Ga]TAFC ([5]; BALB/c mice): Slightly lower retention; excretion in PET/CT images ([6]; listed as [^68Ga]DABuFC): excreted rapidly via the urinary system; also recorded: certain hepatobiliary excretion
2 | CC1=CC(=O)N(O)CCCC(NC(=O)CCC(=O)O)C(=O)OCCC(C)=CC(=O)N(O)CCCC(NC(=O)CCC(=O)O)C(=O)OCCC(C)=CC(=O)N(O)CCCC(NC(=O)CCC(=O)O)C(=O)OCC1 (stereo not drawn) (68Ga complex, metal not drawn) [FSC(suc)3, trisuccinyl(FSC)] | 2.53 ± 0.63 | 2.96 ± 0.21 | 2.60 ± 0.62 | 99.85 ± 0.07 | 99.77 ± 0.12 | 99.72 ± 0.09 | 99.59 ± 0.08 | 99.43 ± 0.17 | 99.36 ± 0.08 | 0.01 | only intact | rapid renal excretion | < 0.1 | 0.21 ± 0.03 | – | excreted rapidly via the urinary system | uptake ratio to [^68Ga]TAFC ([4]; listed as [^68Ga]FSC(suc)3): less than 0.05; retention in the intestine and kidneys in comparison with [^68Ga]TAFC ([5]; BALB/c mice): Slightly lower retention; Lung uptake (infected) ([7]; listed as [^68Ga]FSC(suc)3): 0.31 ± 0.04 %ID/g and 0.3 %ID/g
3 | C/C1=C/C(=O)N(O)CCCC(N)C(=O)OCC/C(C)=C\C(=O)N(O)CCCC(N)C(=O)OCC/C(C)=C\C(=O)N(O)CCCC(N)C(=O)OCC1 (stereo not drawn) (68Ga complex, metal not drawn) [FSC, fusarinine C] | – | – | – | – | – | – | – | – | – | 1.37 | – | – | – | – | – | – | uptake ratio to [^68Ga]TAFC ([4]; listed as [^68Ga]FSC): ~1.4; Uptake in A. terreus in iron-replete condition ([8]; iron-replete condition): 2 % of total activity added; Uptake in A. terreus with TAFC blocking ([8]; iron-starvation condition with TAFC blocking): 28 % of total activity added; uptake in A. terreus ([8]; iron-starvation condition, 45 min, n = 3): > 30 % of total activity added
4 | CC(=O)NC1CCCN(O)C(=O)C=C(C)CCOC(=O)C(NC(C)=O)CCCN(O)C(=O)C=C(C)CCOC(=O)C(NC(C)=O)CCCN(O)C(=O)C=C(C)CCOC1=O (stereo not drawn) (68Ga complex, metal not drawn) [TAFC, triacetylfusarinine C] | 2.54 ± 1.01 | 3.55 ± 0.68 | 2.96 ± 0.33 | 99.89 ± 0.02 | 99.83 ± 0.13 | 99.73 ± 0.03 | 99.48 ± 0.29 | 99.46 ± 0.09 | 99.41 ± 0.19 | 1 | only intact | rapid renal excretion | < 0.1 | 0.20 ± 0.03 | 0.69 ± 0.11 | excreted rapidly via the urinary system | –
5 | CCC(=O)NC1CCCN(O)C(=O)C=C(C)CCOC(=O)C(NC(=O)CC)CCCN(O)C(=O)C=C(C)CCOC(=O)C(NC(=O)CC)CCCN(O)C(=O)C=C(C)CCOC1=O (stereo not drawn) (68Ga complex, metal not drawn) [TPFC, tripropanoyl(FSC)] | 2.31 ± 0.57 | 3.39 ± 0.32 | 2.65 ± 0.66 | 99.90 ± 0.02 | 99.86 ± 0.04 | 99.79 ± 0.11 | 99.67 ± 0.19 | 99.56 ± 0.23 | 99.54 ± 0.25 | 1.40 | only intact | rapid renal excretion | < 0.1 | 0.20 ± 0.02 | 0.63 ± 0.08 | – | uptake ratio to [^68Ga]TAFC ([4]; listed as [^68Ga]TPFC): ~1.4; uptake in intestine [5, 9]: lower than 3 %ID/g; excretion in PET/CT images ([6]; listed as [^68Ga]TPFC): excreted rapidly via the urinary system; also recorded: certain hepatobiliary excretion
